Assay [1] addresses Transcriptional enhancer factor TEF-3 (Homo sapiens, UniProt Q15561). Nature of the assay: Inhibition of FITC-labeled YAP peptide (61 to 100 residues) binding to TEAD4 (unknown origin) preincubated for 1 hr followed by FITC-labeled YAP peptide addition and measured after 30 mins by fluorescence polarization assay. Background: In fluorescence polarisation assays a small probe gives low polarisation when free and higher when bound to something large.

For assay [2], the target named is Serine/threonine-protein kinase TAO1 (Homo sapiens) (UniProt Q7L7X3). Nature of the assay: Inhibition of recombinant human TAO1 (1 to 327 residues) at 10 uM using myelin basic protein as substrate measured after 40 mins in presence of [gamma33P]ATP by scintillation counting method relative to control.
Assay [3] concerns the target Ribosomal protein S6 kinase alpha-3 (Homo sapiens) (UniProt P51812). In words: Inhibition of full length recombinant human Rsk2 (2 to end residues) at 10 uM using KKKNRTLSVA as substrate after 40 mins in presence of [gamma33P]ATP by scintillation counting method relative to control.
Assay [4] addresses Serine/threonine-protein kinase PLK1 (Homo sapiens) (UniProt P53350). Nature of the assay: Inhibition of full length recombinant human Plk1 at 10 uM using casein as substrate after 40 mins in presence of [gamma33P]ATP by scintillation counting method relative to control.
The target of assay [5] is Interleukin-1 receptor-associated kinase 1 (Homo sapiens) (UniProt P51617). Nature of the assay: Inhibition of recombinant human IRAK1 (194 to end residues) at 10 uM using myelin basic protein as substrate after 40 mins in presence of [gamma33P]ATP by scintillation counting method relative to control.
Chain of Interleukin-1 receptor-associated kinase 1 (Homo sapiens) (P51617 whole entry, looked up, the tested form may be a part): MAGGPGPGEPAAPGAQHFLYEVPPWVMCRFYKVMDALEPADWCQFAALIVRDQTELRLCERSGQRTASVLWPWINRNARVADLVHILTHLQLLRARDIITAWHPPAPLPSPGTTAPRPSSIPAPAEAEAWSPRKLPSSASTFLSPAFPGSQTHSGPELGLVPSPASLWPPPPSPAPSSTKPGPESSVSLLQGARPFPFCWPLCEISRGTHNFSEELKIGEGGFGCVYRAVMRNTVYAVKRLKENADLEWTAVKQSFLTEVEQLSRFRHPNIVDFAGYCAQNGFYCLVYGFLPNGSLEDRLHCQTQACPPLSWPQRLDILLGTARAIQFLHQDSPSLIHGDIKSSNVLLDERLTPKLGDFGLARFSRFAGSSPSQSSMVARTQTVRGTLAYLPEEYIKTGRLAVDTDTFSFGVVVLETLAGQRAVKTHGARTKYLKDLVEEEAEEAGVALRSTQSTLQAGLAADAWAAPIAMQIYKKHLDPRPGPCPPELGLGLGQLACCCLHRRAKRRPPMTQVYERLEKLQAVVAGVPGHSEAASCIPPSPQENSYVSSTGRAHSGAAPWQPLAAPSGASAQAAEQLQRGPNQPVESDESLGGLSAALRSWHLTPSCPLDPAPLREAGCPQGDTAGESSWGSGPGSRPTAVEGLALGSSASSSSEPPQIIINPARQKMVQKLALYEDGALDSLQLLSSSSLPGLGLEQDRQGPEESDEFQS
For assay [6], the target named is Insulin receptor (Homo sapiens) (UniProt P06213). Nature of the assay: Inhibition of recombinant human IR activated (1005 to 1310 residues) at 10 uM using KKSRGDYMTMQIG as substrate after 40 mins in presence of [gamma33P]ATP by scintillation counting method relative to control.
The target in assay [7] is Macrophage colony-stimulating factor 1 receptor (Homo sapiens) (UniProt P07333). Nature of the assay: Inhibition of recombinant human FMS (538 to end residues) at 10 uM using KKKSPGEYVNIEFG as substrate after 40 mins in presence of [gamma33P]ATP by scintillation counting method relative to control.
The subject of assay [8] is RAC-gamma serine/threonine-protein kinase (Homo sapiens), Q9Y243 [S472D]. In words: Inhibition of recombinant human PKBgamma S472D mutant (117 to end residues) at 10 uM using GRPRTSSFAEGKK as substrate after 40 mins by in presence of [gamma33P]ATP by scintillation counting method relative to control.
The next assay is filed under the species Homo sapiens. In words: Inhibition of full-length recombinant human PKBalpha S478G mutant at 10 uM using GRPRTSSFAEGKK as substrate after 40 mins by in presence of [gamma33P]ATP by scintillation counting method relative to control.
Assay [9] deals with Fibroblast growth factor receptor 4 (Homo sapiens) (UniProt P22455). In words: Inhibition of recombinant human FGFR4 (442 to 755 residues) at 10 uM using poly(Glu, Tyr) 4:1 as substrate measured after 40 mins in presence of [gamma33P]ATP by scintillation counting method relative to control.
Assay [10] concerns the target Tyrosine-protein kinase CSK (Homo sapiens) (UniProt P41240). Nature of the assay: Inhibition of recombinant full length human CSK at 10 uM using poly(Glu,Tyr) as substrate measured after 40 mins in presence of [gamma33P]ATP by scintillation counting method relative to control.
Assay [11] addresses Platelet-derived growth factor receptor alpha (Homo sapiens) (UniProt P16234). In words: Inhibition of recombinant human PDGFRalpha (550 to end residues) at 10 uM using poly(Glu, Tyr) 4:1 as substrate measured after 40 mins in presence of [gamma33P]ATP by scintillation counting method relative to control.
Assay [12] has as its system Ribosomal protein S6 kinase beta-1 (Homo sapiens), P23443 [T412E]. Nature of the assay: Inhibition of recombinant human p70S6K T412E mutant (1 to 421 residues) at 10 uM using KKRNRTLTV as substrate measured after 40 mins in presence of [gamma33P]ATP by scintillation counting method relative to control.
The target of assay [13] is Myosin light chain kinase 2, skeletal/cardiac muscle (Homo sapiens) (UniProt Q9H1R3). Nature of the assay: Inhibition of recombinant full-length human MYLK2 at 10 uM using KKLNRTLSFAEPG as substrate measured after 40 mins in presence of [gamma33P]ATP by scintillation counting method relative to control.
Assay [14] deals with Cyclin-dependent kinase-like 4 (Homo sapiens) (UniProt Q5MAI5). Nature of the assay: Inhibition of human CDKL4 at 10 uM by radiometric method relative to control.
Assay [15] deals with CDK2/Cyclin A2 (Homo sapiens) (UniProt P24941+P20248). In words: Inhibition of recombinant full-length human CDK2/cyclinA at 10 uM using histone H1 as substrate measured after 40 mins in presence of [gamma33P]ATP by scintillation counting method relative to control. It counts as protein-complex assay.
The subject of assay [16] is CDK18/Cyclin Y (Homo sapiens), Q07002+Q8ND76 [T166M]. Nature of the assay: Inhibition of recombinant full length human cyclinY/CDK18 T166M mutant at 10 uM using YRRAAVPPSPSLS as substrate measured after 40 mins in presence of [gamma33P]ATP by scintillation counting method relative to control. Type of assay: protein-complex assay.
The target in assay [17] is CDC7/Cyclin B1 (Homo sapiens) (UniProt P14635+O00311). In words: Inhibition of full-length recombinant human Cdc7/CyclinB1 at 10 uM using histone H1 as substrate after 120 mins by in presence of [gamma33P]ATP by scintillation counting method relative to control. It counts as protein-complex assay.
Assay [18] deals with MAP kinase-interacting serine/threonine-protein kinase 2 (Homo sapiens) (UniProt Q9HBH9). Nature of the assay: Inhibition of recombinant full-length human MNK2 at 10 uM using myelin basic protein as substrate measured after 40 mins in presence of [gamma33P]ATP by scintillation counting analysis relative to control.
The target of assay [19] is Cytoplasmic tyrosine-protein kinase BMX (Homo sapiens) (UniProt P51813). In words: Inhibition of full-length recombinant human BMX at 10 uM using poly(Glu, Tyr) 4:1 as substrate measured after 40 mins in presence of [gamma33P]ATP by scintillation counting method relative to control.
Assay [20] addresses TGF-beta receptor type-2 (Homo sapiens) (UniProt P37173). Nature of the assay: Inhibition of recombinant human TGFBR2 (188 to end residues) at 10 uM using myelin basic protein as substrate measured after 120 mins in presence of [gamm33P]ATP by scintillation counting method relative to control.
The target of assay [21] is Serine/threonine-protein kinase WNK1 (Homo sapiens) (UniProt Q9H4A3). Nature of the assay: Inhibition of recombinant human WNK1 (1 to 491 residues) at 10 uM using myelin basic protein as substrate measured after 120 mins in presence of [gamm33P]ATP by scintillation counting method relative to control.
Chain of Serine/threonine-protein kinase WNK1 (Homo sapiens) (Q9H4A3 whole entry, looked up, the tested form may be a part): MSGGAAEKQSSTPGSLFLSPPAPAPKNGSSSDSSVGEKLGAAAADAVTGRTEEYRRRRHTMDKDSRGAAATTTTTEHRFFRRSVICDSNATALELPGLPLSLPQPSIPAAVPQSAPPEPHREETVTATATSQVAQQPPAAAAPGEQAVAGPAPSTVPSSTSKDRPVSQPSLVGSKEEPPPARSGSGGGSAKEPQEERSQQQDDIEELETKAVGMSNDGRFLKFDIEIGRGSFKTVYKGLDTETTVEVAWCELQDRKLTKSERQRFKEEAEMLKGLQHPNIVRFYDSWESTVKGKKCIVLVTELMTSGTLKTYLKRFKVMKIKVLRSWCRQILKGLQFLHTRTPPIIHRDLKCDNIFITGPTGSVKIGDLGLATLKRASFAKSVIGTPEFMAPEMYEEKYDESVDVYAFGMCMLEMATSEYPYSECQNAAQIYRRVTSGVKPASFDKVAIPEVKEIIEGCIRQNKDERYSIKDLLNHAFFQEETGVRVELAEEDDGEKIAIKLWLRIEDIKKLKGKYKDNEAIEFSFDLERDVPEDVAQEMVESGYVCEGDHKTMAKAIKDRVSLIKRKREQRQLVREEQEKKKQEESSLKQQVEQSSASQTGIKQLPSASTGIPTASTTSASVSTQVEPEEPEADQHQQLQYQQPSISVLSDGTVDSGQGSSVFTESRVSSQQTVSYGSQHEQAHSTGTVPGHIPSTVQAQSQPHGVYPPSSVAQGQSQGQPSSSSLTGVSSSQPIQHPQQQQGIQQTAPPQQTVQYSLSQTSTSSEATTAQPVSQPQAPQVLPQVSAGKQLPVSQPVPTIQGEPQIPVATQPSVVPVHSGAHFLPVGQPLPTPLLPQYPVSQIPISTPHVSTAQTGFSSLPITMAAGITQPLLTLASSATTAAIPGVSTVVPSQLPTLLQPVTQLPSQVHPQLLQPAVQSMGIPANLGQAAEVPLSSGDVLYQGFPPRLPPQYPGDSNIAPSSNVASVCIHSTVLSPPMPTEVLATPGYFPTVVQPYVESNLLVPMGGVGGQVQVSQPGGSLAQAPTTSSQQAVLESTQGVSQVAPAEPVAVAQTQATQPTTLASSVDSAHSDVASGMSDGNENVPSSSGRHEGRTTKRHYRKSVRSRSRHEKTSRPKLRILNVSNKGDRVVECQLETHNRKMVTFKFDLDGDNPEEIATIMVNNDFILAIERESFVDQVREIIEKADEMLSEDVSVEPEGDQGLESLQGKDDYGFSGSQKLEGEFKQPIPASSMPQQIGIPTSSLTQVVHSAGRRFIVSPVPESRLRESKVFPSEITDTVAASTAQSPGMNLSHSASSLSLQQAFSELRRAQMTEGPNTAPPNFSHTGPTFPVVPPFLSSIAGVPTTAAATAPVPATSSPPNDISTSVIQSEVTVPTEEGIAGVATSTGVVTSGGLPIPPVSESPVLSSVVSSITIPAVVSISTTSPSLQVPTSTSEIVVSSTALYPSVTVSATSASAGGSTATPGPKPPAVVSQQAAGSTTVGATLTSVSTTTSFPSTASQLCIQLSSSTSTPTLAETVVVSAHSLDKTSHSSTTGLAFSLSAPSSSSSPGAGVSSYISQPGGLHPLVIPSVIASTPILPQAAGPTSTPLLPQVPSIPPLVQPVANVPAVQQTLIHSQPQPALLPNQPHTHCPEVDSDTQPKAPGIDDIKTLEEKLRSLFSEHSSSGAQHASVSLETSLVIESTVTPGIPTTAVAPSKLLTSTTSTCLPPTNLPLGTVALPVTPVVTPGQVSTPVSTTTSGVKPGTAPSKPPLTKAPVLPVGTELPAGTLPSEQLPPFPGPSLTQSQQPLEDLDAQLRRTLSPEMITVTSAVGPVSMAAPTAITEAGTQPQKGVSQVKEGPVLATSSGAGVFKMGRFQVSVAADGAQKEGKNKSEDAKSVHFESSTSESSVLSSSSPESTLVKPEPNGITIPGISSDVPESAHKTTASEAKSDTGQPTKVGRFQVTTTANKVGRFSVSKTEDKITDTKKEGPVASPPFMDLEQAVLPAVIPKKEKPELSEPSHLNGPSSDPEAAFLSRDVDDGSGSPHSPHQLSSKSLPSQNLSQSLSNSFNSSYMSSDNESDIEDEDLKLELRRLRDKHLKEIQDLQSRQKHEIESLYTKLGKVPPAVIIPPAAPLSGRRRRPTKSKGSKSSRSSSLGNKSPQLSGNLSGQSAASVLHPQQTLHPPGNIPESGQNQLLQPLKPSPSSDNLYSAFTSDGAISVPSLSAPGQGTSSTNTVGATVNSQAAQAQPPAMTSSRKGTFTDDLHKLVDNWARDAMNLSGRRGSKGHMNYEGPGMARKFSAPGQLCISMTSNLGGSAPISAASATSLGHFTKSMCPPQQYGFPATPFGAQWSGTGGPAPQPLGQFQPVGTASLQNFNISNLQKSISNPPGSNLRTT
In assay [22] the target is DNA (cytosine-5)-methyltransferase 1 (Homo sapiens) (UniProt P26358). Nature of the assay: Inhibition of human DNMT1 at 10 uM after 1 hr by radioisotope-based assay relative to control.
The target in assay [23] is Histone acetyltransferase KAT2A (Homo sapiens) (UniProt Q92830). Nature of the assay: Inhibition of human GCN5 at 10 uM after 1 hr by radioisotope-based assay relative to control.

This note sets out measurements from ChEMBL document CHEMBL4376829, “Discovery and biological evaluation of vinylsulfonamide derivatives as highly potent, covalent TEAD autopalmitoylation inhibitors” (Eur J Med Chem, 2019).

The source made the active and inactive calls. No cut-off for these calls is given here.

Chain of Platelet-derived growth factor receptor alpha (Homo sapiens) (P16234 whole entry, the tested form may be a part): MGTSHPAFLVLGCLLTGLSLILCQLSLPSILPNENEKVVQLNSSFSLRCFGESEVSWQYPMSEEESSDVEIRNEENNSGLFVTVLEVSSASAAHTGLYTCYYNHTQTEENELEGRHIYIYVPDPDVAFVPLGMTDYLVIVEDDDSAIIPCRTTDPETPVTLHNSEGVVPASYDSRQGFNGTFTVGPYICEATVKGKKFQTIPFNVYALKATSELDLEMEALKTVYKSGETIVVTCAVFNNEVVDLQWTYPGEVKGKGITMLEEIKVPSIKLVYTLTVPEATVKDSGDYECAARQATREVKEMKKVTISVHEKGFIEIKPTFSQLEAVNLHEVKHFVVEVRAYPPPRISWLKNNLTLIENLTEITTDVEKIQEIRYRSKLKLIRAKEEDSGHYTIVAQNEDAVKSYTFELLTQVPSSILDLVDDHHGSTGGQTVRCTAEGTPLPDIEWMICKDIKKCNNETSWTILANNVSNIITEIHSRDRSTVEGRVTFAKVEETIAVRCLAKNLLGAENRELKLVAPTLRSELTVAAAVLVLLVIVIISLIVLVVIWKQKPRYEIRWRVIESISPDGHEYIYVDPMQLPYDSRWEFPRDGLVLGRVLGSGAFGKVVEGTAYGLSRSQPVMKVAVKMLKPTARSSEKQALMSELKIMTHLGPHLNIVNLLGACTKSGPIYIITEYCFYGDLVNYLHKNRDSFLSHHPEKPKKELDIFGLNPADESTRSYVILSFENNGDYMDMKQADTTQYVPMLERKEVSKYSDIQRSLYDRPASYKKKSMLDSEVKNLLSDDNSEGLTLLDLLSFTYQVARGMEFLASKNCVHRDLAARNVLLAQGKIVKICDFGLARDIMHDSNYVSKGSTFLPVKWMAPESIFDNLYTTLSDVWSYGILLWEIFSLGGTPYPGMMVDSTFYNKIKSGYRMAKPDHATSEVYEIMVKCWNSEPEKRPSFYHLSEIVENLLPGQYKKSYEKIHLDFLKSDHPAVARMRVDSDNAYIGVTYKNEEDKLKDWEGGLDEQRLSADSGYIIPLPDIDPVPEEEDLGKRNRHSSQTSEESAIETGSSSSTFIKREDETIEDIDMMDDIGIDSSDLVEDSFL
Chain of Ribosomal protein S6 kinase alpha-3 (Homo sapiens) (P51812 whole entry): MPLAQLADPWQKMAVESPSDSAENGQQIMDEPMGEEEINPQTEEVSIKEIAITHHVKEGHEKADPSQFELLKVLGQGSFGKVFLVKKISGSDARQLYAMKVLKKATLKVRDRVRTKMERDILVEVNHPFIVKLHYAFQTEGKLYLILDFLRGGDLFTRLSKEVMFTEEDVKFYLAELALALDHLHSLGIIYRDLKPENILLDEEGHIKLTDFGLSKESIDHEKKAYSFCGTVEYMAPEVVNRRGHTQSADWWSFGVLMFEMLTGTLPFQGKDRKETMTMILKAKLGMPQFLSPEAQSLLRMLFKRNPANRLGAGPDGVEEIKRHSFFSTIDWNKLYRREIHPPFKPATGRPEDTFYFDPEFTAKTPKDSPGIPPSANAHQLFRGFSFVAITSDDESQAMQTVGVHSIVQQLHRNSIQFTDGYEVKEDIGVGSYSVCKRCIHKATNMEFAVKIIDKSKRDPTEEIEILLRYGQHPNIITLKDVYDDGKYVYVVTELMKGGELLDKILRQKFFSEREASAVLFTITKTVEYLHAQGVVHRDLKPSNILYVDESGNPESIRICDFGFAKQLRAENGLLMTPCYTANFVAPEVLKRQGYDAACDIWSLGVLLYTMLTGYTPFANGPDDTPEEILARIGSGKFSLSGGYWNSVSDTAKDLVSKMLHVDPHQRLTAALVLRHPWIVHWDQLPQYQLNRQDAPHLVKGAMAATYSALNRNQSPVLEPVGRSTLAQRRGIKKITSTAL

Consider `C=CS(=O)(=O)Nc1ccc(Cc2ccc3ccccc3c2)cc1`, for which, in assay [1], the outcome was inactive. Moreover, the inhibition in assay [2] is -10%; in assay [3], -3%; in [4], -10%; in assay [5] it was -9%; in assay [6] it was 5%; in [7], 3%. Also, the inhibition is 8% in [8]; 9% in the assay filed under Homo sapiens; -4% in assay [9]; -1% in [10]; 1% in assay [11]; 9% in assay [12]. Further, the inhibition in assay [13] is 6%; in assay [14] it was -6%; in assay [15] it was 10%; in assay [16], -5%; in assay [17], 21%; in [18], 7%. Further, the inhibition in assay [19] is 19%; in [20], 9%; in assay [21], -10%; in [22] it was 15%; in assay [23] it was 2%.

For orientation: inhibition means the drop in the measured response relative to a control, in per cent.
